These results are taken from patent publication US4056631A, “Method of combatting ticks” (Showa Denko K.K., priority 1973, dated 1977).

Series [1] can be described thus: Test 4: acute oral toxicity in mice. Set-up: species or system mice (male albino, strain ddY). The settings on record: mouse, in vivo, single dose, observed for a week. The protocol: Acute oral toxicity was determined by using male albino mice strain ddY, 5 weeks old. The test compounds were administered orally once and the LD50 values were calculated after observing for a week.

The next series concerns mice. The settings on record: heretofore known tickicide; cited from earlier work.

The structures appear in SMILES notation.

Consider `CCOP(=S)(OCC)Oc1nc(Cl)c(Cl)cc1Cl` [Control Chemical III, O,O-diethyl O-(3,5,6-trichloro-2-pyridyl)phosphorothioate, reference compound], for which the LD50 (as a rule, the dose at which mortality reaches 50%) at 168 h in series [1] came to 70 mg/kg. Besides, the LD50 for mice with mice is 70 mg/kg.
